Reference: ChEMBL document CHEMBL1806399, “Synthesis and SAR of new pyrazolo[4,3-h]quinazoline-3-carboxamide derivatives as potent and selective MPS1 kinase inhibitors” (Bioorg Med Chem Lett, 2011)
Converted amounts (≈) assume the structure as drawn.

Tests used:
Aurora kinase A = target: T1, Aurora kinase A (Homo sapiens, UniProt O14965); experiment: Inhibition of Aur-A assessed as [33P]-gamma-ATP incorporation into substrate by gamma counting
T1 sequence (O14965 whole entry): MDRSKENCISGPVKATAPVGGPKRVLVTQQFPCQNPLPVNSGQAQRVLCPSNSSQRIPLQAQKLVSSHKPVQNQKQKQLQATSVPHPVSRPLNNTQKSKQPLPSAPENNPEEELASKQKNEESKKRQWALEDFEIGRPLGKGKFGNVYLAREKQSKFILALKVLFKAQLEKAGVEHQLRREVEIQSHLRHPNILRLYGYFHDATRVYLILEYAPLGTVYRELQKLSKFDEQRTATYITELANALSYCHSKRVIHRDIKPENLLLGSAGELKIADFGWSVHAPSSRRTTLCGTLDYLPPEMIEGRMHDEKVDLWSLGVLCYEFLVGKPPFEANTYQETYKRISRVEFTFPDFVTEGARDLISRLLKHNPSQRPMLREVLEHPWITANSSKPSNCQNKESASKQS

[1] = Solubility of the compound at pH 7; assay type: physicochemical; conditions: buffer
[2] = target: T2, Dual specificity protein kinase TTK (Homo sapiens, UniProt P33981); experiment: Inhibition of MPS1 assessed as [33P]-gamma-ATP incorporation into substrate P38-betatide by gamma counting
T2 sequence (P33981 whole entry): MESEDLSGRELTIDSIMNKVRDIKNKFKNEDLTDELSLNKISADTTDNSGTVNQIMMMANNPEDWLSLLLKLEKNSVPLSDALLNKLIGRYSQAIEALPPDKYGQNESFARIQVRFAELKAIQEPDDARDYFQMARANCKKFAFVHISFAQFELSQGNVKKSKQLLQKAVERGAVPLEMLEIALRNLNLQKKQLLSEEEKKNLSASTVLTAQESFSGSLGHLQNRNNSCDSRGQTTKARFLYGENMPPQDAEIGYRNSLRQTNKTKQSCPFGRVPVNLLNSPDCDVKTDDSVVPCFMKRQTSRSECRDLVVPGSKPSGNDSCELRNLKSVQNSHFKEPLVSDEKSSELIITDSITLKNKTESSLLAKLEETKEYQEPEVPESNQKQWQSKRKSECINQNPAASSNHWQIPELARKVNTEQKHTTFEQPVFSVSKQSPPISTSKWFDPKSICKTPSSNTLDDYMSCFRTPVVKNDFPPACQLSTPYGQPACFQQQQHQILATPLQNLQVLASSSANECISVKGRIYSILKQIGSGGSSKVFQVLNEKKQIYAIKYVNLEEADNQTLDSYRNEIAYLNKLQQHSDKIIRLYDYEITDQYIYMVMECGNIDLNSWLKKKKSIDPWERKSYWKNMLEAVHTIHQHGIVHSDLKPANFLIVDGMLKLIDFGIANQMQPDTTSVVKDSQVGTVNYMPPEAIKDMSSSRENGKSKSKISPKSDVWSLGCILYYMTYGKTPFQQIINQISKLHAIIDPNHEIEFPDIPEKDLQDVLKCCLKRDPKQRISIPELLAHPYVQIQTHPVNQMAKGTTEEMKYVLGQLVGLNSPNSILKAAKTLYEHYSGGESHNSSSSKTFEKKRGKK

[3] = target: Serine/threonine-protein kinase PLK1 (Homo sapiens, UniProt P53350); experiment: Inhibition of PLK1 assessed as [33P]-gamma-ATP incorporation into substrate by gamma counting
Sequence of Serine/threonine-protein kinase PLK1 (P53350 whole entry): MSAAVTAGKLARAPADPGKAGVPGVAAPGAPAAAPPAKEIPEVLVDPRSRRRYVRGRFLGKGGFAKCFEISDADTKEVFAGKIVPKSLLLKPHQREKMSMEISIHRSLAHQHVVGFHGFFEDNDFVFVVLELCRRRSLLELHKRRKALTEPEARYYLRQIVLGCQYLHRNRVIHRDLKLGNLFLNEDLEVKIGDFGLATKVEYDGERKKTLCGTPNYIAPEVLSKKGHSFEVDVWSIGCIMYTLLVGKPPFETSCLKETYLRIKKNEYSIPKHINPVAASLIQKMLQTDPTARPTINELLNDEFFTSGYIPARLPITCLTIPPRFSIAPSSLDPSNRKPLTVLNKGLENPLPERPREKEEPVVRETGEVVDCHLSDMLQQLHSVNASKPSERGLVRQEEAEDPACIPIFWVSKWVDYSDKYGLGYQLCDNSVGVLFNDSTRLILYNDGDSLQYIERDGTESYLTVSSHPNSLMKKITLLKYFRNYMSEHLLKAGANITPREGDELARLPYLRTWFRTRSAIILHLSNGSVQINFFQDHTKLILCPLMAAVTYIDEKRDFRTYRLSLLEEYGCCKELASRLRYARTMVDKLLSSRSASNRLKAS

A2780 = experiment: Antiproliferative activity in human A2780 cells after 72 hrs by CellTiter-Glo assay; assay type: functional, cell-based; conditions: A2780, 72 h
U2OS = experiment: Inhibition of mitosis in human U2OS cells assessed as histone H3 phosphorylation at Ser 10 residue after 2 hrs by immunoassay; assay type: functional, cell-based
[4] = target: Cyclin-dependent kinase 2/cyclin A (Homo sapiens, UniProt P24941); experiment: Inhibition of CDK2/Cyclin A assessed as [33P]-gamma-ATP incorporation into substrate by gamma counting; assay type: protein-complex assay
[5] = AUC in mouse at 10 mg/kg, po; assay type: ADME, organism-based; design: dose 10 mg/kg, route oral; conditions: plasma
[6] = Clearance in mouse at 10 mg/kg, iv; assay type: ADME, organism-based; design: dose 10 mg/kg, route intravenous; conditions: in vivo
[7] = AUC in mouse at 10 mg/kg, iv; assay type: ADME, organism-based; design: dose 10 mg/kg, route intravenous; conditions: plasma
[8] = Half life in mouse at 10 mg/kg, iv; assay type: ADME, organism-based; design: dose 10 mg/kg, route intravenous; conditions: in vivo
[9] = Volume of distribution at steady state in mouse at 10 mg/kg, iv; assay type: ADME, organism-based; design: dose 10 mg/kg, route intravenous; conditions: in vivo, read-out: Vdss
[10] = Cmax in mouse at 10 mg/kg, po; assay type: ADME, organism-based; design: dose 10 mg/kg, route oral; conditions: in vivo
[11] = Half life in mouse at 10 mg/kg, po; assay type: ADME, organism-based; design: dose 10 mg/kg, route oral; conditions: in vivo
[12] = Oral bioavailability in mouse at 10 mg/kg; assay type: ADME, organism-based; conditions: in vivo

Row | Structure (SMILES) | IC50 (Aurora kinase A) | solubility [1] | IC50 [2] | IC50 [3] | IC50 (A2780) | IC50 (U2OS) | IC50 [4] | AUC [5] | clearance [6] | AUC [7] | half-life [8] | Vd [9] | Cmax [10] | half-life [11] | bioavailability [12]
1 | Cc1ccccc1Nc1ncc2c(n1)-c1c(c(C(N)=O)nn1C)CC2 |  |  | 241 nM |  |  |  |  |  |  |  |  |  |  |  | 
2 | CCc1cccc(CC)c1NC(=O)c1nn(C)c2c1CCc1cnc(Nc3ccccc3)nc1-2 | 152 nM |  | 530 nM | > 10000 nM |  |  | > 10000 nM |  |  |  |  |  |  |  | 
3 | Cn1nc(C(=O)NCCc2ccccc2)c2c1-c1nc(Nc3ccccc3)ncc1CC2 | 677 nM |  | > 12000 nM | > 10000 nM |  |  | 697 nM |  |  |  |  |  |  |  | 
4 | CCc1cccc(CC)c1NC(=O)c1nn(C)c2c1CCc1cnc(Nc3ccccc3OC(F)(F)F)nc1-2 | > 10000 nM | < 1 µM | 823 nM | > 10000 nM | 2860 nM |  | > 10000 nM |  |  |  |  |  |  |  | 
5 | CCc1cccc(CC)c1NC(=O)c1nn(C)c2c1CCc1cnc(Nc3ccc(C(=O)N4CCCN(C)CC4)cc3OC(F)(F)F)nc1-2 | > 10000 nM | 46 µM (≈ 31.1 µg/mL) | 146 nM | > 10000 nM | 244 nM | 32 nM | > 10000 nM | 0.64 µM·h | 77.5 mL/min/kg | 2.9 µM·h | 1.61 h | 8.41 L/kg | 245 nM | 2.92 h | 22.4%
6 | CCc1cccc(CC)c1NC(=O)c1nn(C)c2c1CCc1cnc(Nc3ccccc3OC)nc1-2 | 3170 nM | < 1 µM | 525 nM | > 10000 nM | 541 nM |  | > 10000 nM |  |  |  |  |  |  |  | 
7 | CCc1cccc(CC)c1NC(=O)c1nn(C)c2c1CCc1cnc(Nc3ccc(C(=O)NCCN(C)C)cc3OC(F)(F)F)nc1-2 | 1380 nM | 27 µM (≈ 17.6 µg/mL) | 130 nM | > 10000 nM | 771 nM | 110 nM | > 10000 nM |  |  |  |  |  |  |  | 

Further lines, results first:

Row | IC50 (Aurora kinase A) | solubility [1] | IC50 [2] | IC50 [3] | IC50 (A2780) | IC50 (U2OS) | IC50 [4] | AUC [5] | clearance [6] | AUC [7] | half-life [8] | Vd [9] | Cmax [10] | half-life [11] | bioavailability [12] | Structure (SMILES)
8 | 372 nM | 59 µM (≈ 36.7 µg/mL) | 21 nM | > 10000 nM | < 16 nM | 2 nM | 3620 nM |  |  |  |  |  |  |  |  | CCc1cccc(CC)c1NC(=O)c1nn(C)c2c1CCc1cnc(Nc3ccc(C(=O)N4CCCN(C)CC4)cc3OC)nc1-2
9 | > 10000 nM | 65 µM (≈ 46.6 µg/mL) | 391 nM | > 10000 nM | 422 nM | 210 nM | > 10000 nM |  |  |  |  |  |  |  |  | CCc1cccc(CC)c1NC(=O)c1nn(C)c2c1CCc1cnc(Nc3ccc(C(=O)N4CCC[C@@H]4CN4CCCC4)cc3OC(F)(F)F)nc1-2
10 | > 10000 nM | 69 µM (≈ 49.5 µg/mL) | 202 nM | > 10000 nM | 407 nM | 260 nM | > 10000 nM |  |  |  |  |  |  |  |  | CCc1cccc(CC)c1NC(=O)c1nn(C)c2c1CCc1cnc(Nc3ccc(C(=O)N4CCC[C@H]4CN4CCCC4)cc3OC(F)(F)F)nc1-2
11 | 1380 nM | 110 µM (≈ 72.9 µg/mL) | 103 nM | > 10000 nM | 83 nM | 11 nM | > 10000 nM |  |  |  |  |  |  |  |  | CCc1cccc(CC)c1NC(=O)c1nn(C)c2c1CCc1cnc(Nc3ccc(C(=O)N4CCC[C@@H]4CN4CCCC4)cc3OC)nc1-2
